Experimental data published in patent US20090048155A1 (priority 2007, published 2009).

Assays:
Y. pestis CO99pgm- [1] = system: Y. pestis CO99pgm-; design: species or system Sprague-Dawley rats; conditions: rat, in vivo
Y. pestis CO99pgm- [2] = system: Y. pestis CO99pgm-; design: species or system Sprague-Dawley rats; conditions: rat, in vivo; remark: listed apart in the source

O=C(O)c1cn(C2CC2)c2cc(N3CCNCC3)c(F)cc2c1=O [Cipro, ciprofloxacin]
6-day survival rate (Y. pestis CO99pgm- [1]): 100%
Median Survival Time (Y. pestis CO99pgm- [1]): 84 h
Survival (Y. pestis CO99pgm- [1]): 28%
leukocyte infiltration index (LII) (Y. pestis CO99pgm- [2]): did not significantly improve
lung edema (Y. pestis CO99pgm- [2]): did not significantly improve
lung scores (combined interstitial and alveolar edema and hemorrhage and LII scores) (Y. pestis CO99pgm- [2]): did not significantly improve
